Assay results published in PMC11355195 (Life, 2024).
≈ marks a conversion by molar mass, not a printed value.

Assays:
[1] = target: T1, COX-1 (Ovis aries, UniProt P05979); test: COX-1-catalyzed prostaglandin production inhibition; format: biochemical, ram; settings: mean ± standard deviation, three replicas; read-out: COX-1 inhibition IC50 (converted)
T1 construct: The COX-1 enzyme was produced from ram seminal vesicles; purchased Cayman Chemical Company, Ann Arbor, MI, USA; host or cells: ram seminal vesicles (tissue)
T1 sequence (P05979 25-600): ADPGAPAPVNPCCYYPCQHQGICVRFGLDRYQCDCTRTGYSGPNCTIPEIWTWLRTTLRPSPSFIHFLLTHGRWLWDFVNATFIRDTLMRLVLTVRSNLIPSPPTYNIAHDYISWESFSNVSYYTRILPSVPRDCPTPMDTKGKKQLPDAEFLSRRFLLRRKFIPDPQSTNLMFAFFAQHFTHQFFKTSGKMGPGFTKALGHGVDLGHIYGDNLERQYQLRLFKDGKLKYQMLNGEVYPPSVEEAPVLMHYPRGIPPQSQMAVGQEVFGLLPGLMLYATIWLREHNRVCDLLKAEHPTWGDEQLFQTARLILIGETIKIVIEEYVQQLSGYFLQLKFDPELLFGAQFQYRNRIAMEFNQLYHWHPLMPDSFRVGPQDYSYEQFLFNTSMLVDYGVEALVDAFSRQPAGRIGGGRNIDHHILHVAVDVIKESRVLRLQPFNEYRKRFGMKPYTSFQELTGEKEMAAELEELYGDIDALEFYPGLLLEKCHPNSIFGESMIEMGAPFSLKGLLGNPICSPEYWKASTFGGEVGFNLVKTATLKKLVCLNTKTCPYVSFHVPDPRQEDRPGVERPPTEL
Description: The COX inhibitory effects of the substances were examined using a COX-1/COX-2-catalyzed prostaglandin production test, using a modified approach by Futaki et al.. The chemicals were dissolved in 4% DMSO to a final concentration of 100 µg/mL.
In this test, one unit of COX-1 or COX-2 enzyme was suspended in a 0.1 M Tris-HCl buffer (pH 7.5) containing hematin ([…]) and phenol (2 mM) as cofactors. The COX-1 enzyme was produced from ram seminal vesicles, while COX-2 was taken from sheep placenta with a purity of 70% (both from Cayman Chemical Company, Ann Arbor, MI, USA). The reaction mixture was preincubated with either the solvent vehicle (4% DMSO) or the test solution for 2 min at 37 °C. […] Arachidonic acid, tagged with radioactive carbon ([1–14C]), serves as a substrate for the COX enzymes. The mixture was then incubated for an additional 2 min at 37 °C. […] The organic solvent phase was removed, and the PGE2 level in the remaining aqueous phase was quantified using a radioimmunoassay with a liquid scintillation counter, which measures the radioactivity (disintegrations per minute, DPM) of the [1–14C]-labeled PGE2. The percentage inhibition of COX-catalyzed prostaglandin production by the test compounds was estimated by comparing the radioactivity of the samples with the solvent vehicle controls. […]

[2] = ABTS scavenging activity
Source text: With a few minor adjustments, the procedure published by Re et al., was used to evaluate the test samples’ capacity to scavenge radicals against the ABTS (2,2′-azinobis-3-ethylbenzothiazoline-6-sulphonate) radical cation.

[3] = system: peripheral blood mononuclear cells (PBMC); test: MTT cell viability, PBMC (normal cell control); format: cell-based; settings: PBMC, MTT test, 72 h of treatment (Figure 3), read-out: IC50 Value ± SD, PBMC
Description: This approach determines cell viability based on the ability of living cells to decrease MTT to a purple, water-insoluble formazan product. Cells were planted in 96-well plates at a density of 1 × 10^4 cells per well in 100 μL of complete culture media, which provides all necessary nutrients for cell growth. […] The cells were then treated with the compounds for 24, 48, and 72 h to determine the effect on cell viability over varied time intervals. Following each incubation time, 20 μL of MTT solution (at a concentration of 5 mg/mL in PBS) were applied to each well. The plates were further incubated for 4 h at 37 °C, during which time live cells decrease the MTT to formazan, creating purple crystals. At the end of the incubation, the medium containing the MTT was carefully aspirated, leaving only the formazan crystals in the bottom of the wells. To dissolve these crystals, 100 μL of DMSO were administered to each well. […] This formula quantifies the reduction in cell viability in response to the treatments compared to the control. […] Cisplatin, a known anticancer drug, was used as a reference drug at varying concentrations from 0.01 to 50 µg/mL.

[4] = system: MCF-7; test: MTT cell viability, MCF-7; format: cell-based, Human; settings: Homo sapiens, MCF7; MTT test; 72 h of treatment (Figure 3); read-out: IC50 Value ± SD, MCF-7
Description: These cell lines were selected to represent distinct sub-types of breast cancer for extensive investigation. […] The medium was added with 10% heat-inactivated fetal calf serum (FCS) to supply vital growth hormones and nutrients necessary for cell proliferation. Additionally, 1% penicillin streptomycin was administered to avoid bacterial contamination, ensuring the sterility and integrity of the cell cultures. The cell cultures were maintained at 37 °C in a humidified environment containing 5% CO2. This controlled environment mimics physiological conditions in the human body, supporting optimal cell development and function. The humidified atmosphere prevents medium evaporation, while the 5% CO2 concentration maintains optimal pH values in the culture medium. These specialized circumstances and methods ensure that the breast cancer cell lines remain healthy and viable for experimental procedures, delivering dependable and reproducible results for research projects. The standard protocols followed for cultivating these cells are crucial for generating consistent and reliable data. Using well-characterized cell lines from a credible source like ATCC ensures the re-liability and comparability of the experimental outcomes.
This approach determines cell viability based on the ability of living cells to decrease MTT to a purple, water-insoluble formazan product. Cells were planted in 96-well plates at a density of 1 × 10^4 cells per well in 100 μL of complete culture media, which provides all necessary nutrients for cell growth. […] The cells were then treated with the compounds for 24, 48, and 72 h to determine the effect on cell viability over varied time intervals. Following each incubation time, 20 μL of MTT solution (at a concentration of 5 mg/mL in PBS) were applied to each well. The plates were further incubated for 4 h at 37 °C, during which time live cells decrease the MTT to formazan, creating purple crystals. At the end of the incubation, the medium containing the MTT was carefully aspirated, leaving only the formazan crystals in the bottom of the wells. […]

IC50 [1]: 198 µM
ABTS Scavenging Activity IC50 [2]: 125.31 ± 6.25 µg/mL
IC50 [4]: 5.16 ± 0.71 µg/mL (≈ 34.3 µM)
Compound: Cc1ccc(C(C)C)c(O)c1 [Thymol, 2-isopropyl-5-methylphenol]
IC50 [3]: 307 ± 3.48 µg/mL (≈ 2050 µM)
